Laboratory results as given in article PMC6269846, “Pyrrolizidine Alkaloids and Fatty Acids from the Endemic Plant Species Rindera umbellata and the Effect of Lindelofine-N-oxide on Tubulin Polymerization” (Molecules, 2013).

Tests used:
tubulin [1] = test system: T1, tubulin; experiment: turbidimetric tubulin polymerization assay (absorbance at […] nm); type: biochemical, Bos taurus
T1 construct: tubulin isolated from bovine brain (α/β heterodimer); with α-tubulin/β-tubulin heterodimer

tubulin [2] = test system: T1, tubulin; experiment: turbidimetric tubulin polymerization assay (absorbance at […] nm), positive control; type: biochemical, Bos taurus

Row | SMILES | IC50 (tubulin [1]) [µM] | IC50 (tubulin [2]) [µM]
1 | CC(C)[C@@](O)(C(=O)OC[C@@H]1CC[N+]2([O-])CCC[C@H]12)[C@@H](C)O (stereo partly drawn) [compound 7, (2S,3R)-((1R,7aR)-hexahydro-1H-pyrrolizin-1-yl)methyl2,3-dihydroxy-2-isopropylbutanoate-N-oxide] | 91 | –
2 | CC(=O)O[C@H]1C(=O)[C@@]2(C)[C@H]([C@H](OC(=O)c3ccccc3)[C@]3(O)C[C@H](OC(=O)[C@H](O)[C@@H](NC(=O)c4ccccc4)c4ccccc4)C(C)=C1C3(C)C)[C@]1(OC(C)=O)CO[C@@H]1C[C@@H]2O [paclitaxel] | – | 2.4
